Our source for the TGI and GI50 values is PubChem BioAssay (NCI).

Among the test systems are A549 NSCLC; IGROV1 ovarian; DU-145 prostate; U251 CNS; OVCAR-4 ovarian; NCI-H23 lung; NCI/ADR-RES ovarian; MOLT-4 leukemia; LOX IMVI melanoma; NCI-H522 lung.
Common to all, as to assay: inhibition of tumour cell growth, NCI panel, 48 h

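Exposure lasted 48 hours, with cells grown in 96-well plates and compounds tested at five concentrations. GI50 = concentration required for 50% inhibition of growth. Definition used: TGI = concentration required for complete inhibition of growth.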 Bounds are passed on as bounds.

Turning to `O=c1[nH]/c(=C/c2ccc3c(c2)OCO3)c(=O)[nH]/c1=C/c1ccc2c(c1)OCO2`, the TGI with A549 NSCLC, with IGROV1 ovarian, in the experiment with DU-145 prostate, in the experiment on U251 CNS, in the experiment with OVCAR-4 ovarian and in the experiment on NCI-H23 lung was more than 10 µM throughout. For the same compound, the TGI with NCI/ADR-RES ovarian, with MOLT-4 leukemia, in the experiment on LOX IMVI melanoma and in the experiment on NCI-H522 lung was more than 10 µM in each case.
In the case of `CNC(=O)c1n[nH]n(C2CCCCC2)c1=S`, the TGI with A549 NSCLC, in the experiment with IGROV1 ovarian, in the experiment on DU-145 prostate, with U251 CNS, in the experiment on OVCAR-4 ovarian and with NCI-H23 lung was more than 100 µM throughout. Moreover, the TGI in the experiment with NCI/ADR-RES ovarian, in the experiment on MOLT-4 leukemia, in the experiment with LOX IMVI melanoma and in the experiment on NCI-H522 lung was more than 100 µM in each case.
As for `O=C1CCN2c3ccccc3[C@H]3Cc4cccc(c4[C@@H]2C3)CCO1`, the TGI in the experiment on A549 NSCLC is more than 100 µM; with IGROV1 ovarian, 84.9 µM; with DU-145 prostate it was more than 100 µM; in the experiment with U251 CNS it was more than 100 µM; in the experiment on OVCAR-4 ovarian it was more than 100 µM; with NCI-H23 lung it was more than 100 µM. The TGI in the experiment on NCI/ADR-RES ovarian was more than 100 µM; in the experiment on MOLT-4 leukemia it was 54.5 µM; in the experiment on LOX IMVI melanoma, more than 100 µM; with NCI-H522 lung, more than 100 µM.
As for `O=C1Oc2ccccc2C1C/C(=N\Nc1ccccc1)c1ccccc1O` (centres undefined), the TGI in the experiment with A549 NSCLC is more than 100 µM; in the experiment with IGROV1 ovarian, more than 100 µM; in the experiment on DU-145 prostate, more than 100 µM; with U251 CNS, more than 100 µM; in the experiment with OVCAR-4 ovarian it was more than 100 µM; in the experiment with NCI-H23 lung it was 74 µM. The TGI with NCI/ADR-RES ovarian is 70.9 µM; with MOLT-4 leukemia, 78.7 µM; in the experiment with LOX IMVI melanoma, more than 100 µM; with NCI-H522 lung it was 98 µM.
As for `CC(C)Oc1c(C2(c3ccccc3)SCCCS2)c(=O)c1=O`, the TGI with A549 NSCLC, in the experiment with IGROV1 ovarian, in the experiment on DU-145 prostate, in the experiment on U251 CNS, in the experiment on OVCAR-4 ovarian and with NCI-H23 lung was more than 100 µM each time. The TGI was more than 100 µM with NCI/ADR-RES ovarian, more than 100 µM with MOLT-4 leukemia, more than 100 µM in the experiment on LOX IMVI melanoma and 97.3 µM with NCI-H522 lung.
For `CC(=O)OI1NC(=O)c2ccccc21`, the TGI with A549 NSCLC, with IGROV1 ovarian, in the experiment on DU-145 prostate, in the experiment with U251 CNS, in the experiment on OVCAR-4 ovarian and in the experiment on NCI-H23 lung was more than 100 µM each time. The TGI in the experiment on NCI/ADR-RES ovarian, with MOLT-4 leukemia, with LOX IMVI melanoma and in the experiment on NCI-H522 lung was more than 100 µM throughout.
With `CCN(CC)CCCNc1c2c(Cl)cc(Cl)cc2nc2nc(=O)[nH]c(C)c12`, the TGI in the experiment with A549 NSCLC was more than 100 µM; in the experiment on IGROV1 ovarian it was more than 100 µM; with DU-145 prostate, more than 100 µM; in the experiment on U251 CNS, 33.9 µM; in the experiment with OVCAR-4 ovarian, more than 100 µM; with NCI-H23 lung, more than 100 µM. In addition, the TGI with NCI/ADR-RES ovarian is more than 100 µM; with MOLT-4 leukemia it was 54.3 µM; with LOX IMVI melanoma it was 48.5 µM; with NCI-H522 lung, 46.9 µM.
For the compound `CC1(C)C2CCC3CC(CCC#N)CCC3C21C#N` (centres undefined), the TGI in the experiment on A549 NSCLC, in the experiment with IGROV1 ovarian, with DU-145 prostate, with U251 CNS, with OVCAR-4 ovarian and in the experiment with NCI-H23 lung was more than 100 µM in each case. Besides, the TGI in the experiment on NCI/ADR-RES ovarian, with MOLT-4 leukemia, in the experiment on LOX IMVI melanoma and in the experiment on NCI-H522 lung was more than 100 µM each time.
Turning to `COc1ccc(/C=c2\c(=O)[nH]c3nc4ccccc4c(=O)n23)cc1`, the TGI in the experiment on A549 NSCLC, in the experiment with IGROV1 ovarian, with DU-145 prostate, in the experiment with U251 CNS, in the experiment on OVCAR-4 ovarian and with NCI-H23 lung was more than 100 µM each time. Besides, the TGI with NCI/ADR-RES ovarian, in the experiment on MOLT-4 leukemia, in the experiment on LOX IMVI melanoma and in the experiment on NCI-H522 lung was more than 100 µM each time.
As for `CN(C)c1ccc(/C=C/C(=O)c2ccc(O)cc2)cc1`, the TGI with A549 NSCLC was more than 100 µM; in the experiment on IGROV1 ovarian it was more than 100 µM; in the experiment with DU-145 prostate, 63.5 µM; with U251 CNS, more than 42 µM; with OVCAR-4 ovarian it was more than 100 µM; in the experiment with NCI-H23 lung it was more than 100 µM. Also, the TGI in the experiment on NCI/ADR-RES ovarian was more than 40.6 µM; in the experiment with MOLT-4 leukemia, 21 µM; in the experiment with LOX IMVI melanoma it was 45.1 µM; in the experiment with NCI-H522 lung, 8.58 µM.
For `CC1(C)CCN2C(=O)C34CCCC3CC21S4` (centres undefined), the TGI with A549 NSCLC, in the experiment on IGROV1 ovarian, in the experiment on DU-145 prostate, with U251 CNS, with OVCAR-4 ovarian and in the experiment with NCI-H23 lung was more than 100 µM throughout. The TGI with NCI/ADR-RES ovarian, with MOLT-4 leukemia, in the experiment on LOX IMVI melanoma and in the experiment with NCI-H522 lung was more than 100 µM throughout.
With `Clc1ccc(Cl)c(N=Nc2cc3c4c(c2)CCN4CCC3)c1`, the TGI with A549 NSCLC, in the experiment on IGROV1 ovarian, in the experiment on DU-145 prostate, in the experiment with U251 CNS, in the experiment with OVCAR-4 ovarian and with NCI-H23 lung was more than 10 µM throughout. Also, the TGI with NCI/ADR-RES ovarian, with MOLT-4 leukemia, with LOX IMVI melanoma and in the experiment with NCI-H522 lung was more than 10 µM each time.
For `C=CCCC1(O)C(O)C(CO)O[C@H](O[C@@]2(CO)OC(CO)C(O)C2O)C1O` (some centres undefined), the TGI with A549 NSCLC, in the experiment on IGROV1 ovarian, in the experiment on DU-145 prostate, in the experiment with U251 CNS, in the experiment on OVCAR-4 ovarian and in the experiment with NCI-H23 lung was more than 100 µM each time. In addition, the TGI with NCI/ADR-RES ovarian, with MOLT-4 leukemia, in the experiment with LOX IMVI melanoma and in the experiment on NCI-H522 lung was more than 100 µM in each case.
`COC(=O)C(CC(C)C)NC(=O)C(NC(=O)c1ccc(-c2ccc(Cl)cc2Cl)o1)C(C)C` (centres undefined): the TGI with A549 NSCLC was more than 100 µM; in the experiment with IGROV1 ovarian, more than 100 µM; with DU-145 prostate, 74.4 µM; with U251 CNS it was 46 µM; in the experiment on OVCAR-4 ovarian, more than 100 µM; in the experiment on NCI-H23 lung it was more than 100 µM. The TGI with NCI/ADR-RES ovarian was more than 100 µM; in the experiment with MOLT-4 leukemia, 44.7 µM; in the experiment with LOX IMVI melanoma, 30.9 µM; with NCI-H522 lung, 55.5 µM.
Take `O=C(CNc1ccccn1)Nn1cnc2ccc(S(=O)(=O)Nc3ccccn3)cc2c1=O`: the TGI in the experiment on A549 NSCLC, with IGROV1 ovarian, in the experiment with DU-145 prostate, with U251 CNS, in the experiment with OVCAR-4 ovarian and with NCI-H23 lung was more than 100 µM each time. Besides, the TGI in the experiment with NCI/ADR-RES ovarian, in the experiment on MOLT-4 leukemia, in the experiment with LOX IMVI melanoma and in the experiment on NCI-H522 lung was more than 100 µM each time.
In the case of `COC1(CC[C@@H](C)COC2OC(CO)C(O)C(O)C2O)O[C@H]2C[C@H]3[C@@H]4CC=C5C[C@@H](OC6OC(CO)C(OC7OC(C)C(O)C(O)C7O)C(O)C6OC6OC(C)C(O)C(O)C6O)CC[C@]5(C)[C@H]4CC[C@]3(C)[C@H]2[C@@H]1C` (some centres undefined), the GI50 in the experiment with A549 NSCLC was 1.55 µM; in the experiment on IGROV1 ovarian, 2.5 µM; with DU-145 prostate it was 1.92 µM; with U251 CNS it was 1.61 µM; in the experiment with OVCAR-4 ovarian, 2.44 µM; in the experiment with NCI-H23 lung, 2.95 µM. Also, the GI50 in the experiment with NCI/ADR-RES ovarian is 2.59 µM; in the experiment on MOLT-4 leukemia it was 5.36 µM; with LOX IMVI melanoma, 0.645 µM. Also, the TGI in the experiment with A549 NSCLC is 4.22 µM; with IGROV1 ovarian, 7.16 µM; in the experiment on DU-145 prostate it was 4.17 µM; in the experiment with U251 CNS, 4.31 µM; in the experiment on OVCAR-4 ovarian it was 6.72 µM; with NCI-H23 lung, 9.14 µM. In addition, the TGI in the experiment with NCI/ADR-RES ovarian was 6.19 µM; with MOLT-4 leukemia it was more than 26.1 µM; in the experiment with LOX IMVI melanoma, 1.99 µM; with NCI-H522 lung, 4.23 µM.
Take `CCCCOCCOCCOC1=CC(=O)c2c(O)ccc(O)c2C1=O`: the TGI in the experiment with A549 NSCLC stood at 3.43 µM; with IGROV1 ovarian it was 3.38 µM; with DU-145 prostate it was 3.1 µM; in the experiment on U251 CNS it was 3.29 µM; with OVCAR-4 ovarian it was 3.4 µM; with NCI-H23 lung, 3.32 µM. The TGI with NCI/ADR-RES ovarian is 5.14 µM; with MOLT-4 leukemia, 8.22 µM; with LOX IMVI melanoma, 3.39 µM; in the experiment on NCI-H522 lung, 2.99 µM.
As to `C[C@@H](CC(O)C(O)C(C)(C)O)C1CCC23CC12CCC1[C@@]2(C)CCC(O)C(C)(C)C2CC(OC2OC(CO)C(O)C(O)C2O)[C@]13C` (some centres undefined), the TGI in the experiment with A549 NSCLC, with IGROV1 ovarian, in the experiment on DU-145 prostate, in the experiment with U251 CNS, with OVCAR-4 ovarian and in the experiment on NCI-H23 lung was more than 10 µM in each case. Moreover, the TGI with NCI/ADR-RES ovarian, in the experiment on MOLT-4 leukemia, with LOX IMVI melanoma and in the experiment with NCI-H522 lung was more than 10 µM each time.
For `CC1(C)OC(=O)C(C)(C)C(=O)O1`, the TGI with A549 NSCLC, in the experiment on IGROV1 ovarian, with DU-145 prostate, in the experiment on U251 CNS, in the experiment on OVCAR-4 ovarian and in the experiment on NCI-H23 lung was more than 100 µM in each case. Also, the TGI in the experiment on NCI/ADR-RES ovarian, in the experiment with MOLT-4 leukemia, in the experiment on LOX IMVI melanoma and in the experiment with NCI-H522 lung was more than 100 µM in each case.
